Data on 31 compounds can be found in patent US4393228A, “Epoxysuccinic acid derivatives” (Taisho Pharmaceutical Co., Ltd., priority 1977, dated 1983).

Each structure is given as a SMILES string.

The experiment deals with T1, papain (Carica papaya, UniProt P00784).
T1 construct: purchased Sigma Chem. Co
T1 sequence (P00784 134-345): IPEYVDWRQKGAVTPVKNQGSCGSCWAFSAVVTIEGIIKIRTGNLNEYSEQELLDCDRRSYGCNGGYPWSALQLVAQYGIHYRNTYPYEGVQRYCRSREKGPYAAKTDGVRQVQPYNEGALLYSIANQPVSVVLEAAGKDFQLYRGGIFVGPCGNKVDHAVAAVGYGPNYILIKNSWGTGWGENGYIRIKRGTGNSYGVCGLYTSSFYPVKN
Briefly: Papain inhibitory activity (milk casein digestion). The format is biochemical. Conditions: papain 80 μg/ml 0.5 ml, cysteine, pH 6.8, 1% milk casein, 40° C., 10 minutes. The gist of the method: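 Papain (80 μg/ml stock) preincubated 15 min at 40 °C with inhibitor, cysteine/EDTA activator and phosphate buffer pH 6.8. Then 1% milk casein digested 10 min at 40 °C, stopped with trichloroacetic acid and filtered; filtrate absorbance at 280 nm gives percent inhibition versus no-inhibitor control.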
Regarding `CC1(C)C2CCC1(C)C(OC(=O)C1OC1C(=O)O)C2` (stereo not shown) [EP-54, bornyl potassium epoxysuccinate], the “ID50 (amount of inhibitor for 50% inhibition)” value is recorded as 0.09 γ.

`O=C(OC1CC2CCC1C2)C1OC1C(=O)OC1CC2CCC1C2` (stereo not shown) [EP-55, dinorbornyl epoxysuccinate]: the “ID50 (amount of inhibitor for 50% inhibition)” value was 0.28 γ. The result for `O=C(O)C1OC1C(=O)OC1CC2CCC1C2` (stereo not shown) [EP-56, norbornyl potassium epoxysuccinate] reads 0.06 γ; that for `O=C(OC1CC2C=CC1C2)C1OC1C(=O)OC1CC2C=CC1C2` (stereo not shown) [EP-57, dinorbor-5-en-2-yl epoxysuccinate], 0.26 γ; that for `O=C(O)C1OC1C(=O)OC1CC2C=CC1C2` (stereo not shown) [EP-58, norbor-5-en-2-yl potassium epoxysuccinate], 0.07 γ. `O=C(OCC1CC=CCC1)C1OC1C(=O)OCC1CC=CCC1` (stereo not shown) [EP-69, di-3-cyclohexenemethyl epoxysuccinate]: the “ID50 (amount of inhibitor for 50% inhibition)” value is 0.23 γ. Consider `O=C(O)C1OC1C(=O)OCC1CC=CCC1` (stereo not shown) [EP-70, 3-cyclohexenemethylpotassium epoxysuccinate], for which the “ID50 (amount of inhibitor for 50% inhibition)” value is on record as 0.08 γ. `O=C(OCC1C=CCC1)C1OC1C(=O)OCC1C=CCC1` (stereo not shown) [EP-71, di-2-cyclopentenemethyl epoxysuccinate]: the “ID50 (amount of inhibitor for 50% inhibition)” value is recorded as 0.40 γ. Regarding `O=C(O)C1OC1C(=O)OCC1C=CCC1` (stereo not shown) [EP-72, 2-cyclopentenemethyl potassium epoxysuccinate], the “ID50 (amount of inhibitor for 50% inhibition)” value is recorded as 0.08 γ. `CCOC(=O)C1OC1C(=O)N[C@@H](CC(C)C)C(=O)OCC` (stereo partly drawn) [EP-146, N-(3-ethoxycarbonyloxirane-2-carbonyl)-L-leucine ethyl ester]: the “ID50 (amount of inhibitor for 50% inhibition)” value was 0.39 γ. For `C=CCOC(=O)C1OC1C(=O)N[C@@H](Cc1ccc(O)cc1)C(=O)OCc1ccccc1` (stereo partly drawn) [EP-147, N-(3-allyloxycarbonyloxirane-2-carbonyl)-L-tyrosine benzyl ester], the “ID50 (amount of inhibitor for 50% inhibition)” value is on record as 3.40 γ. Take `Cc1cccc(COC(=O)C2OC2C(=O)N[C@@H](Cc2ccc(O)cc2)C(=O)OCc2ccccc2)c1` (stereo partly drawn) [EP-148, N-(3-m-methylbenzyloxycarbonyloxirane-2-carbonyl)-L-tyrosine benzyl ester]: the “ID50 (amount of inhibitor for 50% inhibition)” value is on record as 0.70 γ. With `COC(=O)[C@H](CCSC)NC(=O)C1OC1C(=O)OCc1ccc2c(c1)OCO2` (stereo partly drawn) [EP-149, N-(3-piperonyloxycarbonyloxirane-2-carbonyl)-L-methionene methyl ester], the “ID50 (amount of inhibitor for 50% inhibition)” value is 0.70 γ.

Turning to `CCOC(=O)C1OC1C(=O)N[C@@H](Cc1ccccc1)C(=O)OCC` (stereo partly drawn) [EP-150, N-(3-ethoxycarbonyloxirane-2-carbonyl)-L-phenylalanine ethyl ester], the “ID50 (amount of inhibitor for 50% inhibition)” value was 3.10 γ. In the case of `CCOC(=O)C1OC1C(=O)N[C@@H](Cc1c[nH]c2ccccc12)C(=O)OCC` (stereo partly drawn) [EP-151, N-(3-ethoxycarbonyloxirane-2-carbonyl)-L-tryptophan ethyl ester], the “ID50 (amount of inhibitor for 50% inhibition)” value is 7.20 γ. As for `CCOC(=O)C1OC1C(=O)N1CCC[C@H]1C(=O)OCc1ccccc1` (stereo partly drawn) [EP-152, N-(3-ethoxycarbonyloxirane-2-carbonyl)-L-proline benzyl ester], the “ID50 (amount of inhibitor for 50% inhibition)” value is 48.20 γ.

As to `CCOC(=O)C1OC1C(=O)N[C@@H](CCSC)C(=O)OC` (stereo partly drawn) [EP-155, N-(3-ethoxycarbonyloxirane-2-carbonyl)-L-methionine methyl ester], the “ID50 (amount of inhibitor for 50% inhibition)” value is 9.20 γ.

As for `CCOC(=O)C1OC1C(=O)N[C@@H](CCC(=O)OCc1ccccc1)C(=O)OCc1ccccc1` (stereo partly drawn) [EP-156, N-(3-ethoxycarbonyloxirane-2-carbonyl)-L-glutamic acid dibenzyl ester], the “ID50 (amount of inhibitor for 50% inhibition)” value is given as 13.80 γ. Turning to `CCOC(=O)C1OC1C(=O)N[C@H](C(=O)OCc1ccccc1)C(C)C` (stereo partly drawn) [EP-158, N-(3-ethoxycarbonyloxirane-2-carbonyl)-L-valine benzyl ester], the “ID50 (amount of inhibitor for 50% inhibition)” value is 3.47 γ. The result for `CCOC(=O)[C@H](Cc1ccccc1)NC(=O)C1OC1C(=O)OCc1ccccc1` (stereo partly drawn) [EP-159, N-(3-benzyloxycarbonyloxirane-2-carbonyl)-L-phenylalanine ethyl ester] reads 0.27 γ; that for `CCOC(=O)[C@H](Cc1ccccc1)NC(=O)C1OC1C(=O)OCc1ccccc1Cl` (stereo partly drawn) [EP-160, N-(3-o-chlorobenzyloxycarbonyloxirane-2-carbonyl)-L-phenylalanine ethyl ester], 0.30 γ. Regarding `CC(C)[C@H](NC(=O)C1OC1C(=O)OCc1ccc(Br)cc1)C(=O)OCc1ccccc1` (stereo partly drawn) [EP-162, N-(3-p-bromobenzyloxycarbonyloxirane-2-carbonyl)-L-valine benzyl ester], the “ID50 (amount of inhibitor for 50% inhibition)” value is 0.80 γ. The result for `CCOC(=O)C1OC1C(=O)N[C@@H](CCCCNC(=O)OCc1ccccc1)C(=O)OCc1ccccc1` (stereo partly drawn) [EP-163, N^α -(3-ethoxycarbonyloxirane-2-carbonyl)-N^ε -carbobenzoxy-L-lysine benzyl ester] reads 29.07 γ; that for `C=CCOC(=O)C1OC1C(=O)N[C@@H](CCCCNC(=O)OCc1ccccc1)C(=O)OCc1ccccc1` (stereo partly drawn) [EP-164, N^α -(3-allyloxycarbonyloxirane-2-carbonyl)-N^ε -carbobenzoxy-L-lysine benzyl ester], 20.49 γ; that for `C#CCOC(=O)C1OC1C(=O)N[C@@H](CCCCNC(=O)OCc1ccccc1)C(=O)OCc1ccccc1` (stereo partly drawn) [EP-165, N^α -(3-propargyloxycarbonyloxirane-2-carbonyl)-N^ε -carbobenzoxy-L-lysine benzyl ester], 22.50 γ.

Regarding `CCOC(=O)[C@H](CC(C)C)NC(=O)C1OC1C(=O)OC` (stereo partly drawn) [EP-166, N-(3-methoxycarbonyloxirane-2-carbonyl)-L-leucine ethyl ester], the “ID50 (amount of inhibitor for 50% inhibition)” value is recorded as 0.67 γ. The result for `CCOC(=O)C1OC1C(=O)N[C@@H](CC(C)C)C(N)=O` (stereo partly drawn) [EP-167, N-(3-ethoxycarbonyloxirane-2-carbonyl)-L-leucine amide] reads 0.50 γ; that for `CCOC(=O)C1OC1C(=O)N[C@@H](CCC(N)=O)C(=O)OCc1ccccc1` (stereo partly drawn) [EP-168, N-(3-ethoxycarbonyloxirane-2-carbonyl)-L-glutamine benzyl ester], 12.50 γ.

`CCOC(=O)C1OC1C(=O)N[C@@H](CCCCNC(=O)OCc1ccc(OC)cc1)C(=O)OCc1ccccc1` (stereo partly drawn) [EP-169, N^α -(3-ethoxycarbonyloxirane-2-carbonyl)-N^ε -p-methoxybenzyloxycarbonyl-L-lysine benzyl ester]: the “ID50 (amount of inhibitor for 50% inhibition)” value was 26.50 γ. Turning to `CCOC(=O)C1OC1C(=O)N[C@@H](CCCCNC(=O)OC(C)(C)C)C(=O)OCc1ccccc1` (stereo partly drawn) [EP-170, N^α -(3-ethoxycarbonyloxirane-2-carbonyl)-N^ε -t-butyloxycarbonyl-L-lysine benzyl ester], the “ID50 (amount of inhibitor for 50% inhibition)” value was 27.50 γ. Consider `O=CNCCCC[C@H](NC(=O)C1OC1C(=O)OCc1ccccc1)C(=O)OCc1ccccc1` (stereo partly shown) [EP-171], for which the “ID50 (amount of inhibitor for 50% inhibition)” value is 5.80 γ.
